The record followed here is patent US20060079453A1, “Hla binding peptides and their uses” (priority 2002, published 2006).

Where two headings read alike, the source gives them in different places. No end group written: not given here. Bounds are passed on as bounds.

Assay [1] addresses HLA-A*2902 (Homo sapiens, UniProt P04439, A270S/D101N/D185E/E176V/E277Q/E87Q/F33T/G231S/H175R/I121M/I218V/I322F/K168Q/L300P/L318F/M331R/P208A/P217A/Q86L/T323A/T345S/V100A/V358M). Put plainly: MHC molecular binding / Capture assay, IC50: A*2902.
The target in assay [2] is HLA-DR DRB1*0101 (DR1) (Homo sapiens, UniProt P01903+P01911, A100R/D57E/F55L/F60I/F76Y/I96L/L162R/M171V/P40L/Q125E/R42F/V115G/Y59C). Kind of assay: biochemical. It counts as binding. The conditions noted are these: DRB1 *0101.
In assay [3] the target is HLA-DR DRB1*0301 (DR3) (Homo sapiens, UniProt P01903+P01911, A100K/A102G/A103R/A169T/F55Y/I96L/K41T/L162R/M171V/P40S/Q125H/Q178H/Q39Y/R42S/S66N/T106N/T262R/W38E/Y61H). Put plainly: biochemical. Format: binding.
Assay [4] has as its target HLA-DR DRB1*0401 (DR4) (Homo sapiens, UniProt P01903+P01911, A100K/A169T/F76Y/I96L/K127E/L162R/M171V/N62H/P40V/Q125Y/R42H/S133A/S149N/S66Y/V115G/V209L/W38E). Kind of assay: biochemical. The settings on record: DRB1 *0401. Format: binding.
Assay [5] deals with HLA-DR DRB1*0405 (DR4) (Homo sapiens, UniProt P01903+P01911, A100R/A169T/D86S/F76Y/I96L/K127E/L162R/M171V/N62H/P40V/Q125Y/R42H/S133A/S149N/S66Y/V115G/V209L/W38E). Put plainly: biochemical. The conditions noted are these: DRB1 *0405. It counts as binding.
Assay [6] has as its target HLA-DR DRB1*0701 (DR7) (Homo sapiens, UniProt P01903+P01911, A100R/A102G/A103Q/D57E/D86V/E43K/F76Y/K127E/L162R/M171V/P40G/Q125H/Q99D/R33Q/R42Y/R54Q/S133A/S66F/T210M/V115G/Y107V/Y59L/Y89S). Kind of assay: biochemical. Format: binding. The conditions noted are these: DRB1 *0701.
Assay [7] deals with HLA-DR DRB1*0802 (DR8) (Homo sapiens, UniProt P01903+P01911, A100R/A103L/A169T/F76Y/H45Y/I96F/K41T/L162R/M171V/P40S/Q125H/Q178H/Q39Y/Q99D/R218S/R42G/S66Y/V115G/W38E). Kind of assay: biochemical. Format: binding.
Assay [8] has as its target HLA-DR DRB1*0901 (DR9) (Homo sapiens, UniProt P01903+P01911, A100R/A103E/D57H/D86V/F55Y/F60I/F76Y/I96F/K127E/L162R/M171V/P40D/Q125H/Q99R/R33Q/R42F/S133A/S66N/T210M/V115G/W38K/Y107V/Y59G/Y89S). Put plainly: biochemical. The conditions noted are these: DRB1 *0901. Format: binding.
Assay [9] concerns the target HLA-DR DRB1*1101 (DR11) (Homo sapiens, UniProt P01903+P01911, A100R/A169T/A87E/I96F/K41T/L162R/M171V/P40S/Q125H/Q178H/Q39Y/Q99D/R42S/S66Y/T262R/V115G/W38E). Put plainly: biochemical. It counts as binding. The conditions noted are these: DRB1 *1101.
The target of assay [10] is HLA-DR DRB1*1302 (DR13) (Homo sapiens, UniProt P01903+P01911, A100E/A169T/K41T/L162R/M171V/P40S/Q125H/Q178H/Q39Y/Q99D/R42S/S66N/T262R/V115G/W38E/Y61H). Put plainly: biochemical. It counts as binding. The settings on record: DRBI *1302.
Assay [11] concerns the target HLA-DR DRB1*1501 (DR15) (Homo sapiens, UniProt P01903+P01911). Kind of assay: biochemical. Format: binding. The settings on record: DRBI *1501.
Assay [12] concerns the target HLA-DR DRB3*0101 (DR52) (Homo sapiens, UniProt P01903+P79483). Kind of assay: biochemical. Format: binding.
For assay [13], the target named is HLA-DR DRB4*0101 (DR53) (Homo sapiens, UniProt P01903+P13762, G164S). Put plainly: biochemical. The settings on record: DRB4 *0101. Format: binding.
Assay [14] has as its target HLA-DR DRB5*0101 (DR51) (Homo sapiens, UniProt P01903+Q30154). Put plainly: biochemical. The settings on record: DRB5 *0101. It counts as binding.
In assay [15] the target is HLA-A*3002 (Homo sapiens, UniProt P04439, D101N/D140H/D185E/E176R/F33S/G80R/H175R/K168Q/Q94H/R138E/R41S/V100E). Kind of assay: biochemical. It counts as binding.

Chain of HLA-DR DRB1*1302 (DR13) (P01903 26-254 limits assumed, other chains not shown): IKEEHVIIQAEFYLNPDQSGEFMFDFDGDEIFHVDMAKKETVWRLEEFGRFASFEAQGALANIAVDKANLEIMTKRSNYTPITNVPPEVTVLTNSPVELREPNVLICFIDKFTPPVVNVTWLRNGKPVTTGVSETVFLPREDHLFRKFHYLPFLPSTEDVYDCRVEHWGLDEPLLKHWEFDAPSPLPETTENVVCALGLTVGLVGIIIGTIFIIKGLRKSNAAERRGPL
Chain of HLA-DR DRB1*0301 (DR3) (P01903 26-254 limits assumed, other chains not shown): as above
Chain of HLA-DR DRB1*1101 (DR11) (P01903 26-254 limits assumed, other chains not shown): as above

Consider `CC(C)C[C@H](NC(=O)[C@H](C)NC(=O)[C@H](CO)NC(=O)[C@H](C)NC(=O)[C@@H](NC(=O)[C@H](CC(=O)O)NC(=O)[C@H](CC(C)C)NC(=O)[C@H](CC(C)C)NC(=O)[C@@H](N)CC(=O)O)[C@@H](C)O)C(=O)N[C@@H](Cc1ccc(O)cc1)C(=O)O`, for which the IC50 (as a rule, the concentration that gives 50% inhibition) in assay [1] (Binding affinity to A*2902 (expressed as an IC50)) came to 0.074 µM.
With SDSNIYDLLKDLEEG, the IC50 is greater than 18 µM in assay [2]; 124 µM in assay [3]; 17.5 µM in assay [4]; 0.137 µM in [5]; greater than 85 µM in assay [6]; greater than 33.3 µM in assay [7]. The IC50 in assay [8] is 50.1 µM; in assay [9], greater than 15.4 µM; in assay [10], greater than 16.2 µM; in assay [11] it was greater than 86.7 µM; in assay [12] it was greater than 18.7 µM; in assay [13], 24.3 µM. Further, the IC50 in assay [14] is greater than 9.51 µM.
Turning to YLVCGERGFLYTPKT, the 50% inhibitory concentration (IC50) in assay [2] is 0.155 µM; in assay [3] it was 2.03 µM; in assay [4] it was greater than 20.5 µM; in assay [5] it was greater than 30.1 µM; in [6] it was 12.8 µM; in assay [7], greater than 54.4 µM. For the same compound, the IC50 in assay [8] was 0.124 µM; in assay [9] it was greater than 1110 µM; in assay [10], 2.12 µM; in assay [11], greater than 25.6 µM; in assay [12] it was greater than 95.2 µM; in assay [13], 33.1 µM. Besides, it took 0.971 µM to reach half-maximal inhibition in assay [14] (IC50).
On to TCVLGKLSQELHKLQ, for which the IC50 in assay [2] amounted to 0.026 µM; in [3], 29.5 µM; in [4], 14.8 µM; in assay [5], 9 µM; in assay [6], 18.7 µM; in assay [7] it was 7.66 µM. Besides, the IC50 is 17.9 µM in assay [8]; 1.4 µM in assay [9]; greater than 12.6 µM in assay [10]; 2.01 µM in assay [11]; greater than 263 µM in assay [12]; 0.163 µM in assay [13]. In assay [14], the IC50 was determined as 3.99 µM.
In the case of KYQAVTTTL, in [1] (A*2902 binding affinity (IC50)), the IC50 is greater than 156 µM.
CYSLYGTTF came in with an IC50 in [15] of 7.82 µM.
On to YLVCGERGFFYTPKT, for which the IC50 in assay [2] is 11.1 µM; in assay [3], 37.2 µM; in assay [4] it was 1.44 µM; in assay [5], 0.73 µM; in [6], 64.6 µM; in assay [7] it was greater than 54.4 µM. Further, the IC50 is 1.52 µM in assay [8]; greater than 10.5 µM in assay [9]; 9.27 µM in assay [10]; 10.7 µM in [11]; 92.8 µM in [12]; 34.5 µM in assay [13]. In assay [14], this compound returned an IC50 of 95.2 µM.
With RLRIVRGTQLFEDNYAL, the IC50 in assay [2] worked out at 0.0048 µM; in assay [3] it was 11.3 µM; in assay [4], 8.39 µM; in assay [5], 1.02 µM; in assay [6], 0.012 µM; in [7] it was 6.32 µM. Moreover, the IC50 in assay [8] was determined as 1.83 µM; in assay [9] it was 2.07 µM; in assay [10], 0.0052 µM; in assay [11] it was 0.031 µM; in assay [12], 1.2 µM; in assay [13], 0.12 µM. The same compound came in with an IC50 in assay [14] of 0.046 µM.
Turning to LSEYYDXD1Y, the IC50 in assay [15] (read-out: Binding affinity to A*3002 (expressed as an IC50)) worked out at 0.489 µM.
In turn, ITEYRHYNY registered an IC50 in [15] of 0.418 µM.
As for KEDSHTAWTIVRVEI, the IC50 was 1.91 µM in assay [2]; 44.8 µM in [3]; 0.746 µM in [4]; 0.302 µM in assay [5]; 0.035 µM in assay [6]; greater than 79 µM in assay [7]. The IC50 in assay [8] is 6.08 µM; in assay [9] it was 7.44 µM; in assay [10], 3.05 µM; in assay [11] it was 1.99 µM; in [12], 56.2 µM; in assay [13], 0.018 µM. The compound also showed an IC50 in [14] of 0.575 µM.
As for VTGERGFFYTPKTRR, the half-inhibitory concentration (IC50) in assay [2] turned out to be 18.9 µM; in [3], 3.02 µM; in assay [4] it was 7.23 µM; in [5], 13.4 µM; in assay [6], 27.8 µM; in [7] it was 9.41 µM. Besides, the IC50 is greater than 300 µM in assay [8]; 10.1 µM in assay [9]; 25.4 µM in [10]; 2.82 µM in [11]; 244 µM in assay [12]; greater than 29.8 µM in assay [13]. Further, half-maximal inhibition in [14] (IC50) was put at 0.54 µM.
PVDPNLEPY showed an IC50 in [15] of 7.12 µM.
On to VCGERGFFYTPKTRR, for which the IC50 in assay [2] was 9.62 µM; in assay [3] it was 1.99 µM; in assay [4] it was greater than 20.5 µM; in assay [5], greater than 15.1 µM; in assay [6] it was 5.49 µM; in assay [7] it was 0.419 µM. Besides, the IC50 in assay [8] was 14.4 µM; in assay [9], 3.82 µM; in assay [10], 34.7 µM; in [11] it was greater than 25.6 µM; in assay [12], 17.4 µM; in assay [13], greater than 31 µM. The compound further returned an IC50 in assay [14] of 0.092 µM.
For the compound QLAFDTYQEFEQNPQ, the concentration for half-maximal inhibition (IC50) in assay [2] was greater than 18 µM; in assay [3], 7.85 µM; in [4] it was 28.6 µM; in [5] it was 4.84 µM; in assay [6], 21.1 µM; in [7], greater than 33.3 µM. In addition, the half-maximal inhibitory concentration (IC50) in assay [8] was greater than 59.5 µM; in assay [9], greater than 15.4 µM; in assay [10], 19.7 µM; in [11] it was greater than 86.7 µM; in assay [12] it was 0.738 µM; in assay [13] it was greater than 32.8 µM. The IC50 in assay [14] is greater than 9.51 µM.
Take KLQTYPRTNTGSGTP: the IC50 in assay [2] was greater than 10.1 µM; in [3], greater than 205 µM; in assay [4], greater than 26.5 µM; in assay [5] it was greater than 9.81 µM; in assay [6], greater than 99.2 µM; in assay [7], greater than 51.6 µM. Besides, the IC50 was greater than 29.2 µM in assay [8]; 8.21 µM in [9]; 0.987 µM in [10]; 0.52 µM in [11]; greater than 263 µM in [12]; greater than 105 µM in [13]. In assay [14], this compound yielded an IC50 greater than 14 µM.
Regarding ALLKNYGLLYTFRKD, the IC50 in assay [2] was found to be 0.019 µM; in [3] it was 5.98 µM; in assay [4] it was 0.16 µM; in assay [5] it was 0.303 µM; in [6] it was 5.92 µM; in assay [7], 3.62 µM. The IC50 in assay [8] is 2.63 µM; in assay [9], 1.74 µM; in assay [10], 0.00089 µM; in assay [11], 0.0065 µM; in [12] it was 0.05 µM; in assay [13], 1.34 µM. The same compound gave an IC50 in assay [14] of 0.029 µM.
